Structures are written as SMILES. Structures can show the parent of a compound that is named as a salt.

This is an account of results in patent publication US20050130989A1, “N-arylheteroaromatic products compositions containing them and use thereof” (Aventis Pharma S. A., priority 2003, published 2005).

One experiment has as its target T1, tubulin (Sus scrofa, UniProt P02550+P02554).
T1 construct: Tubulin is purified from pig brain according to published methods; from tissue; host or cells: pig brain
The experiment can be described thus: Evaluation of the inhibition of tubulin polymerization (turbidimetry). Type of experiment: biochemical, pig. To be noted: tubulin 10 μm (1 mg/ml), 37° C., turbidity at 350 nm; concentration that inhibits the rate of polymerization by 50%; read-out: Inhibition of tubulin polymerization IC 50 (μm). An outline of the steps: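 Pig brain tubulin (>95% pure), 10 μm in MES pH 6.8/30% glycerol buffer plus 1 mM GTP and 6 mM MgCl2, with compound at 0.5–10 μm added before polymerization. Polymerization triggered by shift from 6° C to 37° C, followed by turbidity at 350 nm; IC50 is 50% inhibition of polymerization rate.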

A further experiment has as its system HCT116 cells. Nature of the experiment: Inhibition of proliferation of the human colon tumor line HCT116 ([14C]-thymidine incorporation). It is filed as cell-based. To be noted: Homo sapiens, HCT-116, 48 h, 48 hours at 37° C., read-out: Inhibition of HCT116 proliferation IC 50 (μm). Put shortly: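 HCT116 cells (5000/well) in DMEM with 10% fetal calf serum incubated 48 h at 37° C with [14C]-thymidine (0.1 μCi/well) and compound up to 10 μm (DMSO ≤0.5%). Incorporated radioactivity counted; IC50 is concentration cutting radioactivity by 50% versus untreated control.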

T1 sequence (P02550 whole entry): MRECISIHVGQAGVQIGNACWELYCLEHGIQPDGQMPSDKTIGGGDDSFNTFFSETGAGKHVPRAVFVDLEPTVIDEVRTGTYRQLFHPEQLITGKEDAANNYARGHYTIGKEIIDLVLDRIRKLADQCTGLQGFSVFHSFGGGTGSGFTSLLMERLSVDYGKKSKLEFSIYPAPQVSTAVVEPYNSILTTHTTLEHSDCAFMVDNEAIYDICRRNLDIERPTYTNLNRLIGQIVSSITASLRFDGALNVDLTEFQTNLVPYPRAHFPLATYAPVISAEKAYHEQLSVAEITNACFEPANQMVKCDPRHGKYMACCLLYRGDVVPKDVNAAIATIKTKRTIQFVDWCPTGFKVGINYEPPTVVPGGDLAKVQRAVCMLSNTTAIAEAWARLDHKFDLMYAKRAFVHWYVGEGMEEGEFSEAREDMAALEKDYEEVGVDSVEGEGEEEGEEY
T1 sequence (P02554 whole entry): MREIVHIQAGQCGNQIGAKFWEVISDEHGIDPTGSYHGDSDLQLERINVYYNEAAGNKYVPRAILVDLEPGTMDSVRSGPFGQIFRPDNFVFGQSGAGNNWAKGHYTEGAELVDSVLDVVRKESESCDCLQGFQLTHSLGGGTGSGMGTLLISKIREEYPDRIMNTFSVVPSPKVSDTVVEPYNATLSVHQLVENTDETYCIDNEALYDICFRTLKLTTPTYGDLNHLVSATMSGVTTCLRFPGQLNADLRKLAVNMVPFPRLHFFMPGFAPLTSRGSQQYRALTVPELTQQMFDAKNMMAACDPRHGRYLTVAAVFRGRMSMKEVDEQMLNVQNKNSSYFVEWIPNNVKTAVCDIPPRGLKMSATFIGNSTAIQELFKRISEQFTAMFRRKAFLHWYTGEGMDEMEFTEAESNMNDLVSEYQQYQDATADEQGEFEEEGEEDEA

On to `Cc1cc(C(=O)N2CCN(c3cccc(Cl)c3)CC2)n(-c2ccccc2C)n1` [Example E45, [4-(3-Chlorophenyl)piperazin-1-yl](5-methyl-2-o-tolyl-2H-pyrazol-3-yl)methanone], for which the IC50 stood at 990 nM at tubulin and 10.5 nM with HCT116 cells.
With `O=C(c1cccn1-c1ccccc1)N1CCN(c2cccnc2)CC1` [Example E46, (1-Phenyl-1H-pyrrol-2-yl)[4-(pyrid-3-yl)piperazin-1-yl]methanone hydrochloride], the IC50 worked out at 14500 nM on tubulin and 1240 nM with HCT116 cells.
Consider `Cc1cc(C(=O)N2CCN(c3cccc(Cl)c3)CC2)n(C2CCCCC2)n1` [Example E48, [4-(3-Chlorophenyl)piperazin-1-yl](2-cyclohexyl-5-methyl-2H-pyrazol-3-yl)-methanone], for which the figures for the IC50 at tubulin and in the experiment on HCT116 cells were 3260 nM and 490 nM, respectively.
On to `COc1cc(OC)cc(N2CCN(C(=O)c3cccn3-c3ccccc3)CC2)c1` [Example E51, [4-(3,5-Dimethoxyphenyl)piperazin-1-yl](1-phenyl-1H-pyrrol-2-yl)methanone hydrochloride], for which the IC50 on tubulin is 1300 nM; with HCT116 cells, 2300 nM.
With `N#Cc1cccc(-n2nc(C(F)(F)F)cc2C(=O)N2CCN(c3cccc(Cl)c3)CC2)c1` [Example E55, 3-{5-[4-(3-Chlorophenyl)piperazine-1-carbonyl]-3-trifluoromethylpyrazol-1-yl}benzonitrile], the IC50 on tubulin worked out at 3600 nM; with HCT116 cells it was 1340 nM.
As to `COc1cc(OC)cc(N2CCN(C(=O)c3cc(C(F)(F)F)nn3-c3cccc(C#N)c3)CC2)c1` [Example E56, 3-{5-[4-(3,5-Dimethoxyphenyl)piperazine-1-carbonyl]-3-trifluoromethylpyrazol-1-yl}benzonitrile], the IC50 on tubulin worked out at 1100 nM; with HCT116 cells it was 145 nM.
In the case of `NC(=O)c1cccc(N2CCN(C(=O)c3cccn3-c3ccccc3)CC2)c1` [Example E57, 3-[4-(1-Phenyl-1H-pyrrole-2-carbonyl)piperazin-1-yl]benzamide], the IC50 is 2000 nM at tubulin and 89.8 nM in the experiment on HCT116 cells.
In the case of `Cc1cc(C(=O)N2CCN(c3ccc(Br)c(Cl)c3)CC2)n(-c2ccccc2)n1` [Example E59, [4-(4-Bromo-3-chlorophenyl)piperazin-1-yl](5-methyl-2-phenyl-2H-pyrazol-3-yl)methanone], the IC50 on tubulin was 2100 nM; with HCT116 cells, 104 nM.
Turning to `O=C(c1cc(CO)nn1-c1ccccc1)N1CCN(c2cccc(Cl)c2)CC1` [Example E60, (5-Hydroxymethyl-2-phenyl-2H-pyrazol-3-yl)[4-(3-chlorophenyl)piperazin-1l-yl]methanone], the IC50 at tubulin turned out to be 1370 nM; in the experiment on HCT116 cells it was 11.7 nM.
For `O=C(c1cc(OCc2ccccc2)nn1-c1ccccn1)N1CCN(c2cccc(Cl)c2)CC1` [Example E61, (5-Benzyloxy-2-pyrid-2-yl-2H-pyrazol-3-yl)[4-(3-chlorophenyl)piperazin-1-yl]methanone] the same measures were 2300 nM and 6090 nM.
Consider `O=C(c1cc(Br)nn1-c1ccccc1)N1CCN(c2cccc(Cl)c2)CC1` [Example E65, (5-Bromo-2-phenyl-2H-pyrazol-3-yl)[4-(3-chlorophenyl)piperazin-1-yl]-methanone], for which the IC50 on tubulin stood at 1700 nM; in the experiment with HCT116 cells it was 10.6 nM.
For `O=C(c1cc(-c2ccccc2)nn1-c1ccccc1)N1CCN(c2cccc(Cl)c2)CC1` [Example E66, [4-(3-Chlorophenyl)piperazin-1-yl](2,5-diphenyl-2H-pyrazol-3-yl)methanone] the same measures were 3700 nM and 1830 nM.
In the case of `O=C(c1cc(-c2cccnc2)nn1-c1ccccc1)N1CCN(c2cccc(Cl)c2)CC1` [Example E67, [4-(3-Chlorophenyl)piperazin-1-yl][2-phenyl-5-(pyrid-3-yl)-2H-pyrazol-3-yl]methanone], the IC50 amounted to 2300 nM at tubulin and 237 nM in the experiment on HCT116 cells.
For `O=C(c1cc(-c2ccsc2)nn1-c1ccccc1)N1CCN(c2cccc(Cl)c2)CC1` [Example E68, [4-(3-Chlorophenyl)piperazin-1-yl][2-phenyl-5-(thiophen-3-yl)-2H-pyrazol-3-yl]methanone] the same measures were 1400 nM and 339 nM.
With `O=C(c1cc(-c2cccs2)nn1-c1ccccc1)N1CCN(c2cccc(Cl)c2)CC1` [Example E69, [4-(3-Chlorophenyl)piperazin-1-yl][2-phenyl-5-(thiophen-2-yl)-2H-pyrazol-3-yl]methanone], the IC50 at tubulin was 1700 nM; with HCT116 cells, 6150 nM.
Consider `O=Cc1cc(C(=O)N2CCN(c3cccc(Cl)c3)CC2)n(-c2ccccc2)n1` [Example E70, 5-[4-(3-Chlorophenyl)piperazine-1-carbonyl]-1-phenyl-1H-pyrazole-3-carboxaldehyde], for which the IC50 on tubulin was 1300 nM; in the experiment on HCT116 cells, 10.8 nM.
As for `Cc1cc(C(=O)N2CCN(c3ccc(F)c(Cl)c3)CC2)n(-c2ccccc2)n1` [Example E72, [4-(3-Chloro-4-fluorophenyl)piperazin-1-yl](5-methyl-2-phenyl-2H-pyrazol-3-yl)methanone], the IC50 at tubulin came out at 1550 nM; in the experiment with HCT116 cells it was 6.6 nM.
In the case of `COc1cc(OC)cc(N2CCN(C(=O)c3cc(CO)nn3-c3ccccc3)CC2)c1` [Example E73, [4-(3,5-Dimethoxyphenyl)piperazin-1-yl](3-hydroxymethyl-1-phenyl-1H-pyrazol-5-yl)methanone], the figures for the IC50 at tubulin and in the experiment with HCT116 cells were 990 nM and 6.9 nM, respectively.
For `Cc1nccn1Cc1cc(C(=O)N2CCN(c3cccc(Cl)c3)CC2)n(-c2ccccc2)n1` [Example E75, [4-(3-Chlorophenyl)piperazin-1-yl][5-(2-methylimidazol-1-ylmethyl)-2-phenyl-2H-pyrazol-3-yl]methanone] the same measures were 5100 nM and 61.2 nM.
With `O=C(c1cc(CNc2ccccc2)nn1-c1ccccc1)N1CCN(c2cccc(Cl)c2)CC1` [Example E76, [4-(3-Chlorophenyl)piperazin-1-yl](2-phenyl-5-phenylaminomethyl-2H-pyrazol-3-yl)methanone], the IC50 at tubulin was determined as 1900 nM; with HCT116 cells it was 138 nM.
In the case of `Cc1cc(C(=O)N2CCN(c3cc(Cl)ccc3Br)CC2)n(-c2ccccc2)n1` [Example E77, [4-(2-Bromo-5-chlorophenyl)piperazin-1-yl](5-methyl-2-phenyl-2H-pyrazol-3-yl)methanone], the figures for the IC50 on tubulin and with HCT116 cells were 700 nM and 26.7 nM, respectively.
Consider `COc1cc(OC)cc(N2CCN(C(=O)c3cc(C(Br)Br)nn3-c3ccccc3)CC2)c1` [Example E78, [4-(3,5-Dimethoxyphenyl)piperazin-1-yl](3-dibromomethyl-1-phenyl-1H-pyrazol-5-yl)methanone], for which the IC50 at tubulin was 14000 nM; with HCT116 cells it was 318 nM.
`Cc1cc(C(=O)N2CCN(c3cc(Cl)c(Br)cc3Br)CC2)n(-c2ccccc2)n1` [Example E79, [4-(2,4-Dibromo-5-chlorophenyl)piperazin-1-yl](5-methyl-2-phenyl-2H-pyrazol-3-yl)methanone]: the IC50 on tubulin stood at 2200 nM; with HCT116 cells it was 1040 nM.
`O=C(c1cc(COCc2ccccc2)nn1-c1ccccc1)N1CCN(c2cccc(Cl)c2)CC1` [Example E80, (5-Benzyloxymethyl-2-phenyl-2H-pyrazol-3-yl)[4-(3-chlorophenyl)piperazin-1-yl]methanone]: the IC50 at tubulin was 4400 nM; in the experiment with HCT116 cells it was 1130 nM.
For `COc1cc(OC)cc(N2CCN(C(=O)c3cc(Br)nn3-c3ccccc3)CC2)c1` [Example E82, (5-Bromo-2-phenyl-2H-pyrazol-3-yl)[4-(3,5-dimethoxyphenyl)piperazin-1-y]-methanone] the same measures were 940 nM and 1.8 nM.
As to `COc1cc(OC)cc(N2CCN(C(=O)c3cc(-c4ccsc4)nn3-c3ccccc3)CC2)c1` [Example E85, [4-(3,5-Dimethoxyphenyl)piperazin-1-yl][2-phenyl-5-(thiophen-3-yl)-2H-pyrazol-3-yl]methanone], the IC50 at tubulin stood at 1390 nM; in the experiment on HCT116 cells, 181 nM.
For `C/C=C/c1cc(C(=O)N2CCN(c3cc(OC)cc(OC)c3)CC2)n(-c2ccccc2)n1` [Example E86] the same measures were 870 nM and 6.8 nM.
For `COc1cc(OC)cc(N2CCN(C(=O)c3cc(/C=C/c4ccc(F)cc4)nn3-c3ccccc3)CC2)c1` [Example E87, [4-(3,5-Dimethoxyphenyl)piperazin-1-yl]-{5-[E-2-(4-fluorophenyl)vinyl]-2-phenyl-2H-pyrazol-3-yl}methanone], the IC50 at tubulin amounted to 1260 nM; with HCT116 cells, 1280 nM.
As for `COc1cc(OC)cc(N2CCN(C(=O)c3cc(-c4ccc(F)cc4)nn3-c3ccccc3)CC2)c1` [Example E88, [4-(3,5-Dimethoxyphenyl)piperazin-1-yl][5-(4-fluorophenyl)-2-phenyl-2H-pyrazol-3-yl]methanone], the IC50 was found to be 4530 nM on tubulin and 1260 nM with HCT116 cells.
Regarding `COc1cc(OC)cc(N2CCN(C(=O)c3cc(-c4ccc(C(F)(F)F)cc4)nn3-c3ccccc3)CC2)c1` [Example E89, [4-(3,5-Dimethoxyphenyl)piperazin-1-yl][2-phenyl-5-(4-trifluoromethylphenyl)-2H-pyrazol-3-yl]methanone], the IC50 on tubulin turned out to be 3420 nM; in the experiment with HCT116 cells, 1100 nM.
